Holding throughout (format): cell-based, human
For one assay, the system named is ESE-1 promoter. In words: ESE-1 promoter luciferase construct (pXP2/ESE-1) transfection. The note with it: U-138 MG cells; 16 h. The procedure:
Cotransfections of 3-8×10^5 cells were carried out with 600 ng reporter gene construct DNA and 200 ng expression vector DNA using LipofectAMINE PLUS (Gibco-BRL) for 16 hours as described (Oettgen, P., et al. et al., 1997, Mol Cell Biol 17:4419-33). Transfections were performed independently in duplicate and repeated 3 to 4 times with different plasmid preparations with similar results.
To investigate the molecular mechanism by which IL-1 β and LPS regulate ESE-1 expression, we examined the response of an ESE-1 promoter luciferase construct after transfection using two cytokine responsive non-epithelial cell types, U-138 MG human glial cells and RAW 264.7 cells, a murine macrophage cell line (Oettgen, P., et al. 1999, Genomics 55:358-62). Whereas the parental pXP2 vector was not stimulated by IL-1β, in U-138 MG cells, IL-1β increased ESE-1 promoter activity up to 5-fold (FIG. 12a). Similarly, LPS enhanced ESE-1 promoter activity ˜9-fold in RAW 264.7 cells (FIG. 12b).

In assay [1] the test system is ESE-1. Briefly: ESE-1 mRNA RT-PCR in glioma cells (U-138 MG, U-373 MG). The note with it: U-138 MG and U-373 MG glioma cells. The method, then:
(§1) U-87 Mg and U-138 Mg (human glioma), THP-1 (human monocytic), RAW 264.7 (murine monocytic), LB-12 (human osteoblast-like large T antigen transformed bone marrow stromal cells), and human chondrocytes were grown and treated with cytokines as described (Apperley, J., et al. 1990. J Bone Mineral Res. 5:S93; Goldring, M. B., et al. 1994. J Clin Invest 94:2307-16; Goldring, S. R., et al. 1983. J Bone Joint Surg 65:575-84; Libermann, T. A., et al. 1987. Embo J. 6:1627-1632).
(§2) cDNAs were generated from 1 μg of total RNA using Ready-To-Go™ You-prime First-Strand Beads (Amersham Pharmacia Biotech Inc). RT-PCR amplifications of 0.1 μg cDNA were carried out using a MJResearch thermal cycler PTC-100 as follows: 5 min at 94° C., 20-37 cycles of 30 sec at 94° C., 30 sec at 56° C., and 30 sec at 72° C., followed by 5 min at 72° C. (Oettgen, P., et al. 2000, J Biol Chem 275:1216-25). The sequences of the human ESE-1 primers and the primers for human GAPDH were as described (Oettgen, P., et al. 1999, J Biol Chem 274:29439-52).
U-138 MG cells were infected with the IκB adenovirus (kindly provided by Fionula Brennan) (Bondeson, J., et al. 1999, Proc Natl Acad Sci U S A 96:5668-73) for 1 hour in serum-free medium using a multiple of infection of 1000. After infection the cells were washed with medium and incubated for 16 hours in DMEM containing 10% fetal calf serum in the absence or presence of IL-1β. […]

In assay [2] the test system is ESE-1. In words: ESE-1 mRNA RT-PCR in RA synovial fibroblasts. As to conditions: 4th passage RA synovial fibroblasts. The procedure: Tissues from patients with rheumatoid arthritis (RA) were obtained as discarded materials from total joint replacement surgery or synovectomy. RA synovial tissue samples were cultured for the generation of adherent synovial fibroblasts. Dispersed synovial tissues were prepared by a previously published method (Goldring, S. R., et al. 1983. The synovial-like membrane at the bone-cement interface in loose total hip replacements and its proposed role in bone lysis. J Bone Joint Surg 65:575-84). Cells were subjected to 2-4 passages and stimulated with IL-1β (R&D Systems) at 100 pg/ml or with TNF-α (R&D Systems) at 5 ng/ml.
as §2
The synovium in RA is comprised of heterogeneous cell populations including monocyte/macrophages, lymphocytes and synovial fibroblasts. To evaluate whether ESE-1 expression in synovial fibroblasts is regulated by proinflammatory cytokines, 4th passage synovial fibroblasts isolated from RA synovium were stimulated for different times with IL-1β in the absence or presence of indomethacin. […] They also indicate that cytokine-induced prostaglandins may modulate steady state ESE-1 mRNA levels. […] We, therefore, focused our attention in further studies on IL-1β.

Assay [3] deals with ESE-1. In words: ESE-1 mRNA RT-PCR in immortalized chondrocytes T/C28a2, C28/I2, C20/A4. The note with it: T/C28a2, C28/I2 and C20/A4 chondrocytes; 24 hours. The method, then:
as §1, §2
To test the hypothesis that ESE-1 is a mediator of cytokine responses in non-epithelial cell types, we analyzed ESE-1 expression in response to a variety of cytokines in several connective tissue cell types. Immortalized human chondrocytes, T/C28a2, C28/I2, and C20/A4 (Goldring, M. B., et al. 1994, J Clin Invest 94:2307-16), were stimulated with IL-1β, TNF-α and IFN-γ for 24 hours. […] The kinetics of ESE-1 induction was explored in a time course experiment with T/ C28a2 chondrocytes.

“IL-1β: interleukin-1 beta, proinflammatory cytokine”: the “increase in ESE-1 promoter activity” value in the assay on ESE-1 promoter is “up to 5 fold”. Moreover, the ESE-1 expression result with ESE-1 [1] is listed as “rapidly induced transient expression”; in the assay on ESE-1 [3], “induced ESE-1 expression in all chondrocyte cell lines”. Besides, the “ESE-1 mRNA expression, agent alone” value in the assay with ESE-1 [2] was “strongly induced transient ESE-1 expression”.

The record behind these values is patent publication US6869929B2, “Use of transcription factors for treating inflammation and other diseases” (Beth Israel Deaconess Medical Center, priority 2000, dated 2005).
